The values below come from PubChem BioAssay (NCI).

What all share (assay): growth of human tumour cells (NCI), 48 h
Assay [1] relates to MOLT-4 leukemia.
The test system of assay [2] is PC-3 prostate.
Assay [3] deals with LOX IMVI melanoma.
The subject of assay [4] is HL-60(TB) leukemia.
The subject of assay [5] is SK-MEL-28 melanoma.
For assay [6], the system named is 786-0 renal.
The subject of assay [7] is MALME-3M melanoma.
Assay [8] deals with MCF7 breast.

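Grown in 96-well plates, cells were treated for 48 hours with each compound at five concentrations. Insufficient inhibition: endpoint recorded as highest concentration tested. Here, GI50 denotes the concentration required for 50% inhibition of growth. TGI: concentration producing complete growth inhibition.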

Regarding `Oc1cc2ccccc2cc1-c1n[nH]c(=S)n1-c1ccc(Cl)cc1`, the GI50 is 22.7 µM in assay [1]; 15.7 µM in assay [2]; 11.2 µM in assay [3]; 19 µM in assay [4]; 36.4 µM in assay [5]; 16.1 µM in assay [6]. Besides, the GI50 in assay [7] is 8.85 µM. Also, the TGI in assay [1] was over 100 µM; in assay [2] it was over 100 µM; in assay [3], 50.2 µM; in assay [4], over 100 µM; in assay [5], over 100 µM; in assay [6], 49.8 µM. Moreover, in assay [7], the TGI is over 100 µM.

As for `Cc1nn(-c2ccc(Br)cc2)c(C)c1CC(=O)c1cc(O)ccc1O`, the GI50 in assay [1] was 3.26 µM; in assay [2], 9.97 µM; in assay [3], 4.13 µM; in assay [4] it was 11.9 µM; in assay [5], 12.6 µM; in assay [8], 6.27 µM. The GI50 in assay [6] is 20.5 µM. Further, the TGI is over 50 µM in assay [1]; over 50 µM in assay [2]; 13.9 µM in assay [3]; over 50 µM in assay [4]; 47.5 µM in assay [5]; 18.8 µM in assay [8]. Moreover, in assay [6], the TGI was over 50 µM.

As for `C[C@]12CC[C@H]3[C@@H](C[C@@H]4N=C(c5ccc(O)cc5)S[C@@]45C[C@H](O)CC[C@]35C)[C@@H]1CC[C@@H]2O`, the GI50 in assay [1] is 1.93 µM; in assay [3] it was 2.67 µM; in assay [4], 4.09 µM; in assay [5], 3.05 µM; in assay [8], 3.34 µM; in assay [6], 0.423 µM. Also, the GI50 in assay [7] is 3.76 µM. The TGI in assay [1] was over 100 µM; in assay [3] it was 14.6 µM; in assay [4], over 100 µM; in assay [5], 66 µM; in assay [8] it was 21.5 µM; in assay [6] it was 2.39 µM. In assay [7], the TGI is over 100 µM.

For `O=c1cccc(C#CC#C/C=C/CO)o1`, the GI50 in assay [1] is 9.1 µM; in assay [2], 2.94 µM; in assay [3], 1.55 µM; in assay [4] it was 3.17 µM; in assay [5], 2.75 µM; in assay [8], 2.23 µM. Also, in assay [6], the GI50 is 3.72 µM. Also, the TGI in assay [1] is over 100 µM; in assay [2], 11.3 µM; in assay [3] it was 3.32 µM; in assay [4] it was over 100 µM; in assay [5], 10.9 µM; in assay [6], over 27.5 µM.

As to `CCCN1CCN(c2ccc3nc(-c4ccc5nc(-c6ccc(OCC)c(OCC)c6)[nH]c5c4)[nH]c3c2)CC1`, the GI50 in assay [1] was 0.471 µM; in assay [2], 0.381 µM; in assay [3] it was 0.198 µM; in assay [4], 0.339 µM; in assay [5], 0.755 µM; in assay [6], 0.986 µM. In addition, in assay [7], the GI50 is 0.0647 µM. Besides, the TGI is 3.34 µM in assay [1]; 1.92 µM in assay [2]; 0.461 µM in assay [3]; 2.74 µM in assay [4]; 2.19 µM in assay [5]; 2.33 µM in assay [6]. In assay [7], this molecule gave a TGI of 1.19 µM.

As to `O=C1C(Cl)=C(Nc2cccc(O)c2)C(=O)N1c1cccc(Cl)c1Cl`, the GI50 was 2.31 µM in assay [1]; 6.92 µM in assay [2]; 12.5 µM in assay [3]; 24.4 µM in assay [5]; 13.7 µM in assay [8]; 18.2 µM in assay [6]. Further, the GI50 in assay [7] is 11.7 µM. For the same molecule, the TGI in assay [1] is 11.8 µM; in assay [2], 28.6 µM; in assay [3], 28.5 µM; in assay [5] it was over 100 µM; in assay [8] it was 42.7 µM; in assay [6] it was 63.2 µM. In assay [7], this molecule gave a TGI of 53.9 µM.

Consider `O=C(CN1CCN(c2ccc(Cl)cc2)CC1)N1CCN(c2nnc(-c3ccccc3)c(-c3ccccc3)n2)CC1`, for which the GI50 is 2.41 µM in assay [1]; 3.1 µM in assay [2]; 7.26 µM in assay [3]; 2.33 µM in assay [4]; 3.38 µM in assay [8]; 5.64 µM in assay [6]. Also, the GI50 in assay [7] was 2.7 µM. The TGI in assay [1], in assay [2], in assay [3], in assay [4], in assay [8] and in assay [6] was over 100 µM each time. Moreover, the TGI in assay [7] was over 100 µM.

Take `COC(=O)C1C2CCCN2OC1(C)CO` (stereo not given): the TGI in assay [1], in assay [2], in assay [3], in assay [4], in assay [5] and in assay [8] was over 100 µM in each case. In assay [6], the TGI is over 100 µM.

`CCN(CC(COc1ccc2c(c1)[n+]([O-])nc(N)[n+]2[O-])OC(C)=O)C(C)=O` (stereo not given): the TGI in assay [1], in assay [2], in assay [3], in assay [4], in assay [5] and in assay [8] was over 100 µM in each case. Also, in assay [6], the TGI is over 100 µM.

Take `C/C(=N\NC(=O)c1ccncc1)c1ccc(O)cc1O`: the GI50 was 4.14 µM in assay [1]; 10.9 µM in assay [2]; 3.46 µM in assay [3]; 3.4 µM in assay [4]; 9.26 µM in assay [5]; 4.92 µM in assay [8]. Further, the GI50 in assay [6] was 5.84 µM. The TGI in assay [1] is over 100 µM; in assay [2], over 100 µM; in assay [3] it was over 100 µM; in assay [4], 32.6 µM; in assay [5], over 100 µM; in assay [8], over 100 µM. Besides, in assay [6], the TGI is over 100 µM.
